Assay results: PubChem BioAssay AID330 (DTP/NCI, 2004)
Where “and” joins values, the source holds several entries; their conditions need not be identical. Equal entries are not always repeated. Toxic doses and inconclusive results are not listed. Rule for the calls: active = survival T/C of 150% or more; inactive = T/C below 125% in these data.

Tested on: P388 leukemia ip, CD2F1 mice, survival T/C
Test: NCI In Vivo Anticancer Drug Screen. Data for tumor model P388 Leukemia (intraperitoneal) in CD2F1 (CDF1) mice
Conditions: endpoint: median survival time, higher = longer survival
Outline: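 Mice carrying the transplanted tumor received test compound or vehicle. Survival was recorded in each group, and the value is the treated-group measurement divided by that of the vehicle-treated control group.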

[1] = dose: 60.0 mg/kg/injection, schedule: Q01DX005 (ip), vehicle: saline with Tween-80
[2] = dose: 120.0 mg/kg/injection, schedule: Q01DX005 (ip), vehicle: saline with Tween-80
[3] = dose: 240.0 mg/kg/injection, schedule: Q01DX005 (ip), vehicle: saline with Tween-80
[4] = dose: 50.0 mg/kg/injection, schedule: Q01DX009 (ip), vehicle: Klucel (hydroxypropylcellulose) (HPC)
[5] = dose: 100.0 mg/kg/injection, schedule: Q01DX009 (ip), vehicle: Klucel (hydroxypropylcellulose) (HPC)
[6] = dose: 50.0 mg/kg/injection, schedule: Q01DX009 (ip), vehicle: saline with Tween-80
[7] = dose: 50.0 mg/kg/injection, schedule: Q01DX005 (ip), vehicle: Klucel (hydroxypropylcellulose) (HPC)
[8] = dose: 100.0 mg/kg/injection, schedule: Q01DX005 (ip), vehicle: Klucel (hydroxypropylcellulose) (HPC)
[9] = dose: 200.0 mg/kg/injection, schedule: Q01DX005 (ip), vehicle: Klucel (hydroxypropylcellulose) (HPC)

Measured: T/C

COc1cc(OC2OC(CO)C(O)C(O)C2O)c2c(O)c3c(=O)cc(C)oc3cc2c1 (centres undefined)
inactive: dose: 3.75 mg/kg/injection, schedule: Q01DX009 (ip), vehicle: Klucel (hydroxypropylcellulose) (HPC) 100 % of control | dose: 7.5 mg/kg/injection, schedule: Q01DX009 (ip), vehicle: Klucel (hydroxypropylcellulose) (HPC) 100 % of control | dose: 15.0 mg/kg/injection, schedule: Q01DX009 (ip), vehicle: Klucel (hydroxypropylcellulose) (HPC) 94 % of control | dose: 30.0 mg/kg/injection, schedule: Q01DX009 (ip), vehicle: Klucel (hydroxypropylcellulose) (HPC) 101 % of control

CC12CCCN(CCCl)C1CCC1C2CCC2(C)C1CCCN2CCCl (centres undefined)
inactive: dose: 0.78 mg/kg/injection, schedule: Q01DX001 (ip), vehicle: saline with Tween-80 108 % of control | dose: 1.56 mg/kg/injection, schedule: Q01DX001 (ip), vehicle: saline with Tween-80 112 % of control and 118 % of control | dose: 1.56 mg/kg/injection, schedule: Q01DX001 (ip), vehicle: saline 102 % of control | dose: 3.13 mg/kg/injection, schedule: Q01DX001 (ip), vehicle: saline with Tween-80 117 % of control

CC(=O)O[C@@H]1C[C@@]2(C)C(C)(C)C(=O)C=C[C@]2(C)[C@H]2CC[C@]3(C)C(=CC(=O)C3c3ccoc3)[C@]12C (some centres undefined)
inactive: dose: 8.5 mg/kg/injection, schedule: Q01DX005 (ip), vehicle: Klucel (hydroxypropylcellulose) (HPC) 104 % of control | dose: 17.0 mg/kg/injection, schedule: Q01DX005 (ip), vehicle: Klucel (hydroxypropylcellulose) (HPC) 96 % of control | dose: 34.0 mg/kg/injection, schedule: Q01DX005 (ip), vehicle: Klucel (hydroxypropylcellulose) (HPC) 98 % of control | dose: 68.0 mg/kg/injection, schedule: Q01DX005 (ip), vehicle: Klucel (hydroxypropylcellulose) (HPC) 92 % of control | dose: 136.0 mg/kg/injection, schedule: Q01DX005 (ip), vehicle: Klucel (hydroxypropylcellulose) (HPC) 92 % of control

CCCCC(O)CNc1ccccc1 (centres undefined)
inactive: [1] 105 % of control | [2] 99 % of control | [3] 90 % of control

C1CCC([Se][Se]C2CCCCC2)CC1
inactive: [4] 103 % of control | [5] 94 % of control

C/C=C/c1ccccc1N/N=C(\Cl)C(=O)OCC
inactive: dose: 3.75 mg/kg/injection, schedule: Q01DX005 (ip), vehicle: saline with Tween-80 107 % of control | dose: 7.5 mg/kg/injection, schedule: Q01DX005 (ip), vehicle: saline with Tween-80 99 % of control | dose: 12.5 mg/kg/injection, schedule: Q01DX005 (ip), vehicle: saline with Tween-80 99 % of control | dose: 15.0 mg/kg/injection, schedule: Q01DX005 (ip), vehicle: saline with Tween-80 119 % of control | dose: 25.0 mg/kg/injection, schedule: Q01DX005 (ip), vehicle: saline with Tween-80 106 % of control | dose: 50.0 mg/kg/injection, schedule: Q01DX005 (ip), vehicle: saline with Tween-80 118 % of control | [6] 117 % of control

O=C1C(Cl)=C(N2CCOCC2)C(=O)C(Cl)=C1N1CCOCC1
inactive: dose: 50.0 mg/kg/injection, schedule: Q01DX005 (ip), vehicle: suspension in saline 99 % of control | dose: 100.0 mg/kg/injection, schedule: Q01DX005 (ip), vehicle: suspension in saline 104 % of control

CCOC(=O)CCCCCNC(=O)N1c2c(nc(N)[nH]c2=O)NCC1CNc1ccc(C(=O)NC(CCC(=O)O)C(=O)O)cc1 (centres undefined)
inactive: dose: 100.0 mg/kg/injection, schedule: Q01DX009 (ip), vehicle: sodium bicarbonate 97 % of control | dose: 200.0 mg/kg/injection, schedule: Q01DX009 (ip), vehicle: sodium bicarbonate 91 % of control | dose: 400.0 mg/kg/injection, schedule: Q01DX009 (ip), vehicle: sodium bicarbonate 97 % of control

COC(=O)c1ccc(SCCC2(COS(C)(=O)=O)OCCO2)cc1
inactive: [4] 106 % of control | [5] 102 % of control | dose: 200.0 mg/kg/injection, schedule: Q01DX009 (ip), vehicle: Klucel (hydroxypropylcellulose) (HPC) 96 % of control

CCCCN=C(N)N/N=C(\C)c1cccc2c1Cc1c(/C(C)=N/NC(N)=NCCCC)cccc1-2
inactive: dose: 12.5 mg/kg/injection, schedule: Q04DX002 (ip), vehicle: saline with Tween-80 108 % of control

COc1ccc(/C=N/N2CN(C(C)C(=O)O)P(N(CCO)CCO)N=C2N)cc1OC (centres undefined)
inactive: [1] 104 % of control | [2] 99 % of control | [3] 99 % of control

CC(C)(C)c1cc(=O)[nH]c(NC(N)=O)n1
inactive: [6] 96 % of control | dose: 100.0 mg/kg/injection, schedule: Q01DX009 (ip), vehicle: saline with Tween-80 90 % of control | dose: 200.0 mg/kg/injection, schedule: Q01DX009 (ip), vehicle: saline with Tween-80 96 % of control

COc1ccc(/C(C#N)=C/c2cc(OC)c(OC)c(OC)c2)cc1
inactive: [7] 105 % of control | [8] 97 % of control | [9] 101 % of control

CCOC(=O)CNc1sc(=S)[nH]c1C(=O)OCC
inactive: [7] 100 % of control | [8] 91 % of control | [9] 92 % of control

C1CC1C(=NN=C(C1CC1)C1CC1)C1CC1
inactive: dose: 6.25 mg/kg/injection, schedule: Q01DX009 (ip), vehicle: saline with Tween-80 102 % of control | dose: 12.5 mg/kg/injection, schedule: Q01DX009 (ip), vehicle: saline with Tween-80 101 % of control | dose: 25.0 mg/kg/injection, schedule: Q01DX009 (ip), vehicle: saline with Tween-80 96 % of control

C=C1C(=O)OC2CC3(C)OC3CCC3(C)OC3CC12 (centres undefined)
inactive: dose: 7.75 mg/kg/injection, schedule: Q01DX005 (ip), vehicle: Klucel (hydroxypropylcellulose) (HPC) 105 % of control | dose: 15.5 mg/kg/injection, schedule: Q01DX005 (ip), vehicle: Klucel (hydroxypropylcellulose) (HPC) 101 % of control | dose: 31.0 mg/kg/injection, schedule: Q01DX005 (ip), vehicle: Klucel (hydroxypropylcellulose) (HPC) 109 % of control | dose: 62.0 mg/kg/injection, schedule: Q01DX005 (ip), vehicle: Klucel (hydroxypropylcellulose) (HPC) 105 % of control

COc1ccn(C2CCCCO2)c(=O)n1 (centres undefined)
inactive: dose: 50.0 mg/kg/injection, schedule: Q01DX005 (ip), vehicle: saline 108 % of control | dose: 100.0 mg/kg/injection, schedule: Q01DX005 (ip), vehicle: saline 108 % of control | dose: 200.0 mg/kg/injection, schedule: Q01DX005 (ip), vehicle: saline 108 % of control

COc1cccc2c1C(=O)c1c(O)c3c(c(O)c1C2=O)CC(O)(C(C)=O)CC3OC1CC(NC2=CC(=O)CC(C)(C)C2)C(O)C(C)O1 (centres undefined)
inactive: dose: 3.13 mg/kg/injection, schedule: Q04DX003 (ip), vehicle: distilled water + Tween-80 103 % of control | dose: 6.25 mg/kg/injection, schedule: Q04DX003 (ip), vehicle: distilled water + Tween-80 103 % of control | dose: 12.5 mg/kg/injection, schedule: Q04DX003 (ip), vehicle: distilled water + Tween-80 100 % of control | dose: 25.0 mg/kg/injection, schedule: Q04DX003 (ip), vehicle: distilled water + Tween-80 100 % of control | dose: 50.0 mg/kg/injection, schedule: Q04DX003 (ip), vehicle: distilled water + Tween-80 109 % of control

COc1cc2ccnc(C3(OC(=O)c4ccccc4)CCN(CCc4ccccc4)CC3)c2cc1OC
inactive: dose: 12.5 mg/kg/injection, schedule: Q01DX009 (ip), vehicle: saline 96 % of control | dose: 25.0 mg/kg/injection, schedule: Q01DX009 (ip), vehicle: saline 92 % of control | [6] 96 % of control

O=C1C(=Cc2cccnc2)C(=O)c2ccccc21
inactive: [1] 106 % of control | [2] 111 % of control

CC(C)c1ccc(C(=O)C2C(=O)C=C(c3ccc(C(C)C)cc3)OC2=O)cc1 (centres undefined)
inactive: dose: 100.0 mg/kg/injection, schedule: Q01DX001 (ip), vehicle: saline 105 % of control | dose: 200.0 mg/kg/injection, schedule: Q01DX001 (ip), vehicle: saline 108 % of control | dose: 400.0 mg/kg/injection, schedule: Q01DX001 (ip), vehicle: saline 118 % of control
